# Laboratory results: patent US20030083357A1, “Oxime derivatives for the treatment of dyslipidemia and hypercholesteremia” (priority 2001, published 2003)
# Entries after “also recorded” stand apart in the source; their conditions may differ.
# Experiments:
# [1] = tested on: Sprague Dawley Rats Maintained on a High Cholesterol Atherogenic Diet; experiment: Oral treatment of hypercholesterolemia in Sprague Dawley rats on a high cholesterol atherogenic diet; assay type: in vivo, rat; details: 10 mg/kg once daily by oral gavage in sesame oil, five days, p≦0.01
# Method: Six week-old male Sprague Dawley rats (HSD, Harlan) were housed in a fixed 12-12- hr artificial light-dark cycle, and maintained on a high cholesterol, atherogenic diet ad libitum (#C13002, Research Diets, NJ).
# Animals were maintained on this diet throughout the course of the study.
# Following six days of maintenance on the high cholesterol diet, the animals were bled from the tail vein (100-200 μL of whole blood) and serum levels of total cholesterol were measured in duplicate (Infinity Cholesterol Kit; Sigma, St. Louis, Mo.). Based on these initial measures, animals were sorted into groups with approximately the same average serum cholesterol levels. Once sorted, the animals were housed three per cage and maintained on the high cholesterol diet ad libitum.
# Treatment groups(n=6/group):
# 1) Lean Sprague Dawley control (sesame oil)
# 2) High cholesterol fed control (sesame oil)
# 3) Compound 1 in sesame oil (10 mg/kg; once daily)
# Drug is prepared by mixing Compound 1 in sesame oil, and administered to animals in a volume of 3 ml/kg/dose. Drug is administered by oral gavage daily for five consecutive days.
# To monitor the effect of Compound 1, animals were bled from the tail vein five days after commencement of oral treatment. Serum cholesterols were measured in duplicate. […]
# [2] = tested on: Obese, Glucose Intolerant Zucker Fatty Rats (fa/fa); experiment: Glucose tolerance test in obese, glucose intolerant Zucker Fatty Rats (fa/fa) after oral treatment; assay type: in vivo, rat; details: 10 mg/kg once daily by oral gavage in sesame oil, 1 week; 2 g/kg oral glucose after 12 hr fast, serum glucose at 0.5, 1, 2 hours; p<0.05 and p<0.01; FIG. 3
# Method: Ten week-old male Zucker Fatty Rats (fa/fa; Harlan) were housed in a fixed 12-12- hr artificial light-dark cycle, and maintained on a standard diet provided ad libitum. Animals were allowed two days to acclimate in this experimental environment prior to the initiation of the study.
# Prior to initiation of treatment, the animals were bled from the tail vein (100-200 μL of whole blood) and serum levels of triglycerides were measured in duplicate (Infinity kits; Sigma, St. Louis, Mo.). Based on these initial measures, animals were sorted into groups with approximately the same average serum triglyceride levels. Once sorted, the animals were housed one per cage and provided standard rodent diet ad libitum.
# Treatment groups (n=5/group):
# 2) Compound 1 in sesame oil (10 mg/kg once daily)
# Drug is prepared by mixing Compound 1 in sesame oil, and administered to animals in a volume of 3 ml/kg/dose. Drug is administered by oral gavage once daily.
# To monitor the effect of Compound 1, animals were tested in a glucose tolerance test. One day prior to the tolerance test, the animals were fasted overnight (12 hr fast). Animals were then bled at 0 hours to establish baseline glucose levels. […] The animals were then bled 0.5, 1, and 2 hours later and serum glucose levels were measured in duplicate. […]
smiles,measurement,setting,value
"COc1ccc(/C=N/O)cc1-c1cc2c(cc1C)C(C)(C)CCC2(C)C [Compound 1, 3-(3,5,5,8,8-Pentamethyl-5,6,7,8-tetrahydro-2-naphthyl)-4-methoxybenzaldehyde oxime]",total serum cholesterol,"[1]; compared to control animals on the same atherogenic diet, FIG. 1",significantly reduced
same,LDL cholesterol levels,"[1]; compared to controls, FIG. 2",reduced
same,glucose clearance rate (glucose tolerance test),[2],improvement of glucose tolerance; also recorded: significant increase
same,melting point,,152 °C
